In US20170152239A1, “BENZAMIDE AND HETEROBENZAMIDE COMPOUNDS” (PFIZER INC., priority 2012, published 2017):

What follows are molecules tested against WT EZH2 (EZH2 4 protein complex: EZH2, EED, SUZ12, RbAp48) (Homo sapiens, UniProt O75530+Q09028+Q15022+Q15910) (assay: WT EZH2 nucleosome assay). Conditions: nucleosome assay, 5 nM EZH2 4-protein complex, 1.5 μM SAM; read-out: WT EZH2 IC50.
Assay type: biochemical
Outline: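 IC50 values come from 4-parameter fits of 11-point dose responses, with % effect also given at 20 μM. Reactions held HeLa oligonucleosomes (25 μg/mL), rH1 (50 nM), 1.5 μM tritiated SAM and 5 nM enzyme complex at pH 8.5 Tris/DTT/Tween; stopped by TCA after 60 min, filtered and scintillation-counted.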

WT EZH2 (EZH2 4 protein complex: EZH2, EED, SUZ12, RbAp48), sequence (Q15910 whole entry): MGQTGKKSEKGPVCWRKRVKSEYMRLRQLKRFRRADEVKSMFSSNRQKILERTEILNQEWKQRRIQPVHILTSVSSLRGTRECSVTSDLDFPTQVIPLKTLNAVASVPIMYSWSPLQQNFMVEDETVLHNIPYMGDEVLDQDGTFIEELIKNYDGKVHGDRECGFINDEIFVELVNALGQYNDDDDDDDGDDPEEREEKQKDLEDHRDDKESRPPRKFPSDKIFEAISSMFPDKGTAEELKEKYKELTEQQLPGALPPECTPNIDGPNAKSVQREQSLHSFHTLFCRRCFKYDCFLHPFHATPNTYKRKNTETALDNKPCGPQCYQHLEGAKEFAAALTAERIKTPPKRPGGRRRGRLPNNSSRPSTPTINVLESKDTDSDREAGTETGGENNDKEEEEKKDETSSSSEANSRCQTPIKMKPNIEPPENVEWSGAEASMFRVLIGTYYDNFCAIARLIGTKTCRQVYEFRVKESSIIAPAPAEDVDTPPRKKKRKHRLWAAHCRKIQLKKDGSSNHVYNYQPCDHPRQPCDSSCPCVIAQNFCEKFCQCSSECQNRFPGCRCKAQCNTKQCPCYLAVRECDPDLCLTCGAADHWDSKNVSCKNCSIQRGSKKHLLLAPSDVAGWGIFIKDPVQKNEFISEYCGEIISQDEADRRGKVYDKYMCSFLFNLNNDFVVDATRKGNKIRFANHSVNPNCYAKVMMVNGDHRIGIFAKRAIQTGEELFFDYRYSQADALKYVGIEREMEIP
WT EZH2 (EZH2 4 protein complex: EZH2, EED, SUZ12, RbAp48), sequence (O75530 whole entry partner): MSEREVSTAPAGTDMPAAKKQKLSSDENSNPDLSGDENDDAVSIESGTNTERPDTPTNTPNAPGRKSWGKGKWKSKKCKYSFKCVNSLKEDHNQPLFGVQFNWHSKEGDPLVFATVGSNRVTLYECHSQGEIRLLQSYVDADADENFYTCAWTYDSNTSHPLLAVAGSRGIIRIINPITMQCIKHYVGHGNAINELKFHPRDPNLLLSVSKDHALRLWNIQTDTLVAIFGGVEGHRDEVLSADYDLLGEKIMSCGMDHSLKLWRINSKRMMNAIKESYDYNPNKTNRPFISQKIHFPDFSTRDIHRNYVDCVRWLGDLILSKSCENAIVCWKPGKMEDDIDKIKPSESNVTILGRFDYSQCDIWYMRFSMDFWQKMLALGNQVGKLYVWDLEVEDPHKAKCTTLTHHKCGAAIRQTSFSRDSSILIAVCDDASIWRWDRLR
WT EZH2 (EZH2 4 protein complex: EZH2, EED, SUZ12, RbAp48), sequence (Q15022 whole entry partner): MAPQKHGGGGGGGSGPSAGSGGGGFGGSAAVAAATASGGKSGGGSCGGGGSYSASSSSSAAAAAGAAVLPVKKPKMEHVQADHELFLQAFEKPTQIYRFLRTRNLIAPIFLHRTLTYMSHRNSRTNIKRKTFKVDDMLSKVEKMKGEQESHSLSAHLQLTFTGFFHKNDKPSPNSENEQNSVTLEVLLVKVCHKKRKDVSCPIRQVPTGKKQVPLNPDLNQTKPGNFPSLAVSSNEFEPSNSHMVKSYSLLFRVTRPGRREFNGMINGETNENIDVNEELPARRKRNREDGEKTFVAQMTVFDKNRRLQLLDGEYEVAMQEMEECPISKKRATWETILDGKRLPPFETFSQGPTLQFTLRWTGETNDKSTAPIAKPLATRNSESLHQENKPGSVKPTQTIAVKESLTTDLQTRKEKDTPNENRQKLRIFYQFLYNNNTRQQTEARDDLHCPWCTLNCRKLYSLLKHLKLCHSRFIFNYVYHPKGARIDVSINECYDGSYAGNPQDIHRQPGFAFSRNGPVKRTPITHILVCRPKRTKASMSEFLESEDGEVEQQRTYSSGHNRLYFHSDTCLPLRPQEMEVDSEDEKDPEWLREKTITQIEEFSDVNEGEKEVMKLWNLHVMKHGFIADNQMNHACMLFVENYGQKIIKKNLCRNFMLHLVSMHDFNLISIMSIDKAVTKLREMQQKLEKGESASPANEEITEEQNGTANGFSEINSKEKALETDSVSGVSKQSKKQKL
WT EZH2 (EZH2 4 protein complex: EZH2, EED, SUZ12, RbAp48), sequence (Q09028 whole entry partner): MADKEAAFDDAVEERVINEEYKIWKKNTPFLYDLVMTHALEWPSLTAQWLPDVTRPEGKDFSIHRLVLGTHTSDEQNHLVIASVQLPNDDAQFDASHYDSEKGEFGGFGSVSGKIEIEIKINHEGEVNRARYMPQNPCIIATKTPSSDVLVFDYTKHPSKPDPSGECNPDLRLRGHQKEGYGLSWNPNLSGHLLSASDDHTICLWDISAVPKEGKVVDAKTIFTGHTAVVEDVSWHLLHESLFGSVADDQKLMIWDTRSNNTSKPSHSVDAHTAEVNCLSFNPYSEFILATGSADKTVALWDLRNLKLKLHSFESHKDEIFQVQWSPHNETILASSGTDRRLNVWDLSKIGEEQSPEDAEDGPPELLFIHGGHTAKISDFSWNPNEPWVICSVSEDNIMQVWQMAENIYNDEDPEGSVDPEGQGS

Cc1cc(C)c(CNC(=O)c2nc(OCCN3CC(F)C3)nc(-c3ccnn3C)c2C)c(=O)[nH]1 [Example 109, N-[(4,6-dimethyl-2-oxo-1,2-dihydropyridin-3-yl)methyl]-2-[2-(3-fluoroazetidin-1-yl)ethoxy]-5-methyl-6-(1-methyl-1H-pyrazol-5-yl)pyrimidine-4-carboxamide] and Cc1cc(C)c(CNC(=O)c2nc(OCCN3CC(F)(F)C3)nc(-c3ccnn3C)c2C)c(=O)[nH]1 [Example 117, 2-[2-(3,3-difluoroazetidin-1-yl)ethoxy]-N-[(4,6-dimethyl-2-oxo-1,2-dihydropyridin-3-yl)methyl]-5-methyl-6-(1-methyl-1H-pyrazol-5-yl)pyrimidine-4-carboxamide] are within 1.5-fold of each other in IC50: 23 µM for the first, 31.1 µM for the second.

Compared with Cc1cc(C)c(CNC(=O)c2nccc(-c3ccnn3C)c2C)c(=O)[nH]1 [Example 110, N-[(4,6-dimethyl-2-oxo-1,2-dihydropyridin-3-yl)methyl]-3-methyl-4-(1-methyl-1H-pyrazol-5-yl)pyridine-2-carboxamide], Cc1cc(C)c(CNC(=O)c2ncnc(-c3ccnn3C)c2C)c(=O)[nH]1 [Example 124, N-[(4,6-dimethyl-2-oxo-1,2-dihydropyridin-3-yl)methyl]-5-methyl-6-(1-methyl-1H-pyrazol-5-yl)pyrimidine-4-carboxamide] is 2.1-fold higher in IC50: 23.2 µM for the first, 49.3 µM for the second. The first is the more potent here.

Compared with Cc1cc(C)c(CNC(=O)c2cccc(-n3cnnc3C)c2C)c(=O)[nH]1 [Example 111, N-[(4,6-dimethyl-2-oxo-1,2-dihydropyridin-3-yl)methyl]-2-methyl-3-(3-methyl-4H-1,2,4-triazol-4-yl)benzamide], Cc1cc(C)c(CNC(=O)c2cccc(OC(C)C)c2F)c(=O)[nH]1 [Example 130, N-[(4,6-dimethyl-2-oxo-1,2-dihydropyridin-3-yl)methyl]-2-fluoro-3-isopropoxy-benzamide] is 2.7-fold higher in IC50: 24.8 µM for the first, 67.9 µM for the second. The first is the more potent here.

Compared with Cc1cc(C)c(CNC(=O)c2ncnc(N3CCCC3C(C)C)c2C)c(=O)[nH]1 (stereo not drawn) [Example 112, N-[(4,6-dimethyl-2-oxo-1,2-dihydropyridin-3-yl)methyl]-6-(2-isopropylpyrroli-din-1-yl)-5-methylpyrimidine-4-carboxamide], Cc1cc(C)c(CNC(=O)c2ncnc(N3CCC[C@@H]3C(N)=O)c2C)c(=O)[nH]1 [Example 145, 6-[(2R)-2-carbamoyl-pyrrolidin-1-yl]-N-[(4,6-dimethyl-2-oxo-1,2-dihydropyridin-3-yl)methyl]-5-methylpyrimi-dine-4-carboxamide] is higher in IC50: 25.3 µM for the first, greater than 200 µM for the second. The first is the more potent here.

Cc1cc(C)c(CNC(=O)c2nc(O[C@H]3CCOC3)nc(-c3ccnn3C)c2C)c(=O)[nH]1 [Example 114, N-[(4,6-dimethyl-2-oxo-1,2-dihydropyridin-3-yl)methyl]-5-methyl-6-(1-methyl-1H-pyrazol-5-yl)-2-[(3S)-tetrahydro-furan-3-yloxy]pyrimidine-4-carboxamide] and CCCc1cc(C)[nH]c(=O)c1CNC(=O)c1nc(C2CC2)nc(-c2ccnn2C)c1C [Example 118, 2-cyclopropyl-5-methyl-N-[(6-methyl-2-oxo-4-propyl-1,2-dihydropyridin-3-yl)methyl]-6-(1-methyl-1H-pyrazol-5-yl)pyrimidine-4-carboxamide] are within 1.5-fold of each other in IC50: 28.4 µM for the first, 31.8 µM for the second.

First: Cc1cc(C)c(CNC(=O)c2ncnc(-c3ccnn3C)c2Cl)c(=O)[nH]1 [Example 115, 5-chloro-N-[(4,6-dimethyl-2-oxo-1,2-dihydropyridin-3-yl)methyl]-6-(1-methyl-1H-pyrazol-5-yl)pyrimidine-4-carboxamide]
Second: Cc1ccc(CNC(=O)c2nc(C3CC3)nc(-c3ccnn3C)c2C)c(=O)[nH]1 [Example 141, 2-cyclopropyl-5-methyl-N-[(6-methyl-2-oxo-1,2-dihydropyridin-3-yl)methyl]-6-(1-methyl-1H-pyrazol-5-yl)pyrimidine-4-carboxamide]
The IC50 of the first is lower: 28.7 µM for the first, greater than 200 µM for the second.

Going from Cc1cc(C)c(CNC(=O)c2ncnc(N3CCC[C@@H]3C#N)c2C)c(=O)[nH]1 [Example 116, 6-[(2R)-2-cyanopyrrolidin-1-yl]-N-[(4,6-dimethyl-2-oxo-1,2-dihydropyridin-3-yl)methyl]-5-methyl-pyrimidine-4-carboxamide] to Cc1cc(C)c(CNC(=O)c2ncnc(N3CCC[C@@H]3CO)c2C)c(=O)[nH]1 [Example 133, N-[(4,6-dimethyl-2-oxo-1,2-dihydropyridin-3-yl)methyl]-6-[(2R)-2-(hydroxymeth-yl)pyrrolidin-1-yl]-5-methylpyrimidine-4-carboxamide], the IC50 rises from 29.2 µM to 87.5 µM (3-fold).

First: Cc1cc(C)c(CNC(=O)c2ncnc(N3CC[C@@H](C)C3)c2C)c(=O)[nH]1 [Example 120, N-[(4,6-dimethyl-2-oxo-1,2-dihydropyridin-3-yl)methyl]-5-methyl-6-[(3R)-3-methylpyrrolidin-1-yl]pyrimidine-4-carboxamide]
Second: COCC1CCN(c2ncnc(C(=O)NCc3c(C)cc(C)[nH]c3=O)c2C)C1 (stereo not drawn) [Example 132, N-[(4,6-dimethyl-2-oxo-1,2-dihydropyridin-3-yl)methyl]-6-[3-(methoxymeth-yl)pyrrolidin-1-yl]-5-methylpyrimidine-4-carboxamide]
The IC50 of the first is 2-fold lower: 40.5 µM for the first, 81.4 µM for the second.

Compared with Cc1cc(C(F)(F)F)c(CNC(=O)c2cccc(-c3ccnn3C)c2Cl)c(=O)[nH]1 [Example 121, 2-chloro-N-{[6-methyl-2-oxo-4-(trifluoromethyl)-1,2-dihydropyridin-3-yl]methyl}-3-(1-methyl-1H-pyrazol-5-yl)benzamide], Cc1cc(C(F)(F)F)[nH]c(=O)c1CNC(=O)c1cc(Cl)cc(-c2ccnn2C)c1C [Example 142, 5-chloro-2-methyl-N-{[4-methyl-2-oxo-6-(trifluoromethyl)-1,2-dihydropyridin-3-yl]methyl}-3-(1-methyl-1H-pyrazol-5-yl)benzamide] is higher in IC50: 42.1 µM for the first, greater than 200 µM for the second.

Going from Cc1cc(C)c(CNC(=O)c2ncnc(N3CCCC3C3CC3)c2C)c(=O)[nH]1 (stereo not drawn) [Example 122, 6-(2-cyclopropyl-pyrrolidin-1-yl)-N-[(4,6-dimethyl-2-oxo-1,2-dihydropyridin-3-yl)methyl]-5-methylpyrimidine-4-carboxamide] to Cc1cc(C)c(CNC(=O)c2ncnc(N3CC[C@H]4C[C@H]43)c2C)c(=O)[nH]1 [Example 136, 6-[(1R,5S)-2-azabicyclo[3.1.0]hex-2-yl]-N-[(4,6-dimethyl-2-oxo-1,2-dihydropyridin-3-yl)methyl]-5-methyl-pyrimidine-4-carboxamide], the IC50 rises from 43.6 µM to 161 µM (3.7-fold). The first is the more potent here.

Cc1cc(C)c(CNC(=O)c2ncnc(N3CCOCC3)c2C)c(=O)[nH]1 [Example 123, N-[(4,6-dimethyl-2-oxo-1,2-dihydropyridin-3-yl)methyl]-5-methyl-6-morpholin-4-ylpyrimidine-4-carboxamide] and Cc1cc(C)c(CNC(=O)c2ncnc(N3CCCC3)c2C)c(=O)[nH]1 [Example 125, N-[(4,6-dimethyl-2-oxo-1,2-dihydropyridin-3-yl)methyl]-5-methyl-6-pyrrolidin-1-ylpyrimidine-4-carboxamide] are within 1.5-fold of each other in IC50: 44.4 µM for the first, 50.7 µM for the second.

Going from COC[C@H]1CCCN1c1ncnc(C(=O)NCc2c(C)cc(C)[nH]c2=O)c1C [Example 131, N-[(4,6-dimethyl-2-oxo-1,2-dihydropyridin-3-yl)methyl]-6-[(2R)-2-(methoxymeth-yl)pyrrolidin-1-yl]-5-methylpyrimidine-4-carboxamide] to Cc1noc([C@H]2CCCN2c2ncnc(C(=O)NCc3c(C)cc(C)[nH]c3=O)c2C)n1 [Example 146, N-[(4,6-dimethyl-2-oxo-1,2-dihydropyridin-3-yl)methyl]-5-methyl-6-[(2R)-2-(3-methyl-1,2,4-oxadiazol-5-yl)pyrrolidin-1-yl]pyrimidine-4-carboxamide], the IC50 rises from 77.8 µM to greater than 200 µM.

First: CCOc1cccc(C(=O)NCc2c(C)cc(C)[nH]c2=O)c1F [Example 134, N-[(4,6-dimethyl-2-oxo-1,2-dihydropyridin-3-yl)methyl]-3-ethoxy-2-fluoro-benzamide]
Second: COc1ccc(OC)c(C(=O)NCc2c(C)cc(C)[nH]c2=O)c1OC [Example 140, N-[(4,6-dimethyl-2-oxo-1,2-dihydropyridin-3-yl)methyl]-2,3,6-trimethoxy-benzamide]
The IC50 of the first is lower: 127 µM for the first, greater than 200 µM for the second. The first is the more potent here.

CC(C)Oc1cccc(C(=O)NCc2ccc[nH]c2=O)c1Cl [Example 139, 2-chloro-3-isopropoxy-N-[(2-oxo-1,2-dihydropyridin-3-yl)methyl]benz-amide] and CCn1ncc(C)c1-c1cccc(C(=O)NCc2c(C)c(Cl)c(C)[nH]c2=O)c1C [Example 148, N-[(5-chloro-4,6-dimethyl-2-oxo-1,2-dihydropyridin-3-yl)methyl]-3-(1-ethyl-4-methyl-1H-pyrazol-5-yl)-2-methyl-benzamide] cannot be ordered by IC50: greater than 200 µM for the first, greater than 200 µM for the second.

CC(=O)N[C@H]1CCN(c2ncnc(C(=O)NCc3c(C)cc(C)[nH]c3=O)c2C)C1 [Example 143, 6-[(3S)-3-azetamido-pyrrolidin-1-yl]-N-[(4,6-dimethyl-2-oxo-1,2-dihydropyridin-3-yl)methyl]-5-methylpyrimidine-4-carboxamide] and Cc1cc(C)c(CNC(=O)c2ncnc(N3CCC[C@@H]3c3ccccn3)c2C)c(=O)[nH]1 [Example 144, N-[(4,6-dimethyl-2-oxo-1,2-dihydropyridin-3-yl)methyl]-5-methyl-6-[(2R)-2-pyridin-2-ylpyrrolidin-1-yl]pyrimidine-4-carboxamide] cannot be ordered by IC50: greater than 200 µM for the first, greater than 200 µM for the second.
